Literature values, collected in patent US7625410B2, “Stent device and method” (Boston Scientific Scimed, Inc., priority 2001, dated 2009).

Columns and labels:
[1] = test system: human and rat aortic smooth muscle cells and endothelial cell proliferation
[2] = not given; remark: listed apart in the source

In the case of `C=CC[C@@H]1/C=C(\C)C[C@H](C)C[C@H](OC)[C@H]2O[C@@](O)(C(=O)C(=O)N3CCCC[C@H]3C(=O)O[C@H](/C(C)=C/[C@@H]3CC[C@@H](O)[C@H](OC)C3)[C@H](C)[C@@H](O)CC1=O)[C@H](C)C[C@@H]2OC` [tacrolimus], the “solubility in organic solvents” value (chloroform, ethylacetate acetone, and ethanol) is listed as “soluble”, the solubility in water (water) is listed as “practically insoluble in water” and the “antiproliferative properties on vascular cells” value ([1]; human and rat aortic smooth muscle cells and endothelial cells) is listed as “very modest antiproliferative properties”. The “transition to the secretory smooth muscle cell type” value ([1]; smooth muscle cells, type responsible for the restenosis build up) was “practically totally inhibited”, the halflife ([2]; assumed value used for the estimate of systemic dosage) was 12 h and the “distribution in the blood” value ([2]; blood) was “primarily intracellular in red blood cells”. For the same molecule, the “binding in the plasma” value ([2]; plasma) was “bound to α-1 sour glycoproteins and albumins”.
